Measurements from the supplement of paper PMC11962398.

Legend:
BI-2493 [1] = compound: T1, C[C@H]1CNCCN1c1nccc(-c2noc3c2CCC[C@@]32CCCc3sc(N)c(C#N)c32)n1 [BI-2493]; conditions: 5 days
Method: (§1)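 PRISM pooled barcoded cancer cell line viability screen (Broad Institute) with BI-2493 at 8 doses in threefold dilutions from 0.00457 to 10 µmol/L, 5-day treatment; curves fitted per cell line. IC50 is undefined (placeholder) for resistant lines. AUC is capped at 1, and sensitivity is reported as 1 − AUC.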

BI-2493 [2] = compound: T1, BI-2493; experiment: 1 - AUC of viability dose-response curve (sensitivity) (fraction); higher = more sensitive; conditions: 5 days
Method: as §1

| Test System | IC50 of cell viability (BI-2493 [1]) [µM] | 1 - AUC of viability dose-response curve (BI-2493 [2]) |
| --- | --- | --- |
| DETROIT562_UPPER_AERODIGESTIVE_TRACT | 2.81 | 0.18 |
| DKMG_CENTRAL_NERVOUS_SYSTEM | 4.05 | 0.112 |
| DL_SOFT_TISSUE | 4.57 | 0.192 |
| DMS53_LUNG | 6.38 | 0.114 |
| DMS79_LUNG | > 10 | 0.0188 |
| DMS273_LUNG | 2.81 | 0.265 |
| DND41_HAEMATOPOIETIC_AND_LYMPHOID_TISSUE | 4.59 | 0.156 |
| DOTC24510_CERVIX | 6.38 | 0.0765 |
| DU145_PROSTATE | > 10 | 0.172 |
| DU4475_BREAST | 2.96 | 0.151 |
| DV90_LUNG | 0.856 | 0.308 |
| EB1_HAEMATOPOIETIC_AND_LYMPHOID_TISSUE | 9.47 | 0.0219 |
| EBC1_LUNG | 6.97 | 0.0696 |
| ECC2_BILIARY_TRACT | > 10 | < 0 |
| ECC10_STOMACH | 4.51 | 0.0829 |
| ECGI10_OESOPHAGUS | 4.75 | 0.15 |
| EFM19_BREAST | 8.2 | 0.0426 |
| EFM192A_BREAST | > 10 | 0.0526 |
| EFO21_OVARY | > 10 | 0.106 |
| EFO27_OVARY | 9.28 | 0.167 |
| EKVX_LUNG | 7.44 | 0.146 |
| EM2_HAEMATOPOIETIC_AND_LYMPHOID_TISSUE | 4.85 | 0.207 |
| EMTOKA_ENDOMETRIUM | 4.31 | 0.0999 |
| EN_ENDOMETRIUM | 9.54 | 0.0294 |
| EOL1_HAEMATOPOIETIC_AND_LYMPHOID_TISSUE | 0.77 | 0.355 |

| Test System | IC50 of cell viability (BI-2493 [1]) [µM] | 1 - AUC of viability dose-response curve (BI-2493 [2]) |
| --- | --- | --- |
| ES2_OVARY | 9.51 | 0.00984 |
| ESS1_ENDOMETRIUM | 1.43 | 0.362 |
| EW8_BONE | 4.5 | 0.0935 |
| EWS502_BONE | 3.56 | 0.177 |
| FADU_UPPER_AERODIGESTIVE_TRACT | 6.09 | 0.102 |
| FLO1_OESOPHAGUS | 4.86 | 0.0758 |
| FTC133_THYROID | > 10 | 0.0578 |
| G292CLONEA141B1_BONE | > 10 | 0.0653 |
| G361_SKIN | 4.01 | 0.117 |
| G401_SOFT_TISSUE | > 10 | 0.17 |
| G402_SOFT_TISSUE | 4.25 | 0.117 |
| G415_BILIARY_TRACT | 2.22 | 0.245 |
| GAMG_CENTRAL_NERVOUS_SYSTEM | 8.24 | 0.0333 |
| GB1_CENTRAL_NERVOUS_SYSTEM | > 10 | 0.00342 |
| GB2_BILIARY_TRACT | 2.24 | 0.256 |
| GCIY_STOMACH | > 10 | 0.00163 |
| GCT27_TESTIS | > 10 | 0.128 |
| GCT_SOFT_TISSUE | 6.05 | 0.0856 |
| GI1_CENTRAL_NERVOUS_SYSTEM | 3.59 | 0.132 |
| GOS3_CENTRAL_NERVOUS_SYSTEM | 9.35 | 0.0406 |
| GP5D_LARGE_INTESTINE | > 10 | 0.0606 |
| GRANTA519_HAEMATOPOIETIC_AND_LYMPHOID_TISSUE | > 10 | 0.0332 |
| GSS_STOMACH | 3.3 | 0.19 |
| H4_CENTRAL_NERVOUS_SYSTEM | 5.48 | 0.0861 |
| H103_UPPER_AERODIGESTIVE_TRACT | 7.57 | 0.0476 |

| Test System | IC50 of cell viability (BI-2493 [1]) [µM] | 1 - AUC of viability dose-response curve (BI-2493 [2]) |
| --- | --- | --- |
| H157_UPPER_AERODIGESTIVE_TRACT | 8.84 | 0.023 |
| H376_UPPER_AERODIGESTIVE_TRACT | 5.33 | 0.243 |
| H413_UPPER_AERODIGESTIVE_TRACT | > 10 | 0.126 |
| HA1E_KIDNEY | > 10 | 0.223 |
| HAC2_OVARY | 6.07 | 0.157 |
| HCA1_CERVIX | 4.58 | 0.132 |
| HCC15_LUNG | 9.81 | 0.0598 |
| HCC33_LUNG | 9.27 | 0.161 |
| HCC44_LUNG | 1.66 | 0.257 |
| HCC56_LARGE_INTESTINE | 2.37 | 0.242 |
| HCC78_LUNG | 7.51 | 0.164 |
| HCC515_LUNG | 5.55 | 0.103 |
| HCC827_LUNG | 7.98 | 0.0511 |
| HCC1143_BREAST | 9.86 | 0.106 |
| HCC1195_LUNG | 9.21 | 0.0206 |
| HCC1359_LUNG | 9.67 | 0.00729 |
| HCC1395_BREAST | 5.13 | 0.139 |
| HCC1419_BREAST | 7.93 | 0.0762 |
| HCC1428_BREAST | 5.47 | 0.106 |
| HCC1438_LUNG | > 10 | < 0 |
| HCC1806_BREAST | 5.35 | 0.0665 |
| HCC1937_BREAST | > 10 | 0.143 |
| HCC1954_BREAST | 5.1 | 0.0754 |
| HCC2108_LUNG | 9.5 | 0.0106 |
| HCC4006_LUNG | > 10 | 0.233 |

| Test System | IC50 of cell viability (BI-2493 [1]) [µM] | 1 - AUC of viability dose-response curve (BI-2493 [2]) |
| --- | --- | --- |
| HCSC1_CERVIX | 9.79 | 0.0229 |
| HCT116_LARGE_INTESTINE | 4.75 | 0.167 |
| HDMB03_CENTRAL_NERVOUS_SYSTEM | 4.5 | 0.129 |
| HDMYZ_HAEMATOPOIETIC_AND_LYMPHOID_TISSUE | 9.62 | 0.00919 |
| HDQP1_BREAST | 8.25 | 0.0753 |
| HEC1A_ENDOMETRIUM | 3.64 | 0.136 |
| HEC1B_ENDOMETRIUM | 3.94 | 0.175 |
| HEC1_ENDOMETRIUM | 5.02 | 0.131 |
| HEC6_ENDOMETRIUM | 8.15 | 0.0397 |
| HEC59_ENDOMETRIUM | 9.3 | 0.025 |
| HEC108_ENDOMETRIUM | 5.68 | 0.123 |
| HEC116_ENDOMETRIUM | 9.57 | 0.012 |
| HEC151_ENDOMETRIUM | 5.89 | 0.0839 |
| HEC251_ENDOMETRIUM | 3.15 | 0.282 |
| HEC265_ENDOMETRIUM | 3.76 | 0.109 |
| HEL9217_HAEMATOPOIETIC_AND_LYMPHOID_TISSUE | 4.27 | 0.173 |
| HEL_HAEMATOPOIETIC_AND_LYMPHOID_TISSUE | 4.89 | 0.255 |
| HEP3B217_LIVER | 6.95 | 0.0726 |
| HEPG2_LIVER | 4.13 | 0.0929 |
| HEYA8_OVARY | 3.57 | 0.117 |
| HGC27_STOMACH | 3.92 | 0.158 |
| HH_HAEMATOPOIETIC_AND_LYMPHOID_TISSUE | 5.02 | 0.0743 |
